In US9273057B2 (Bristol-Myers Squibb Company, priority 2012, dated 2016):

Biological target: CK2A1 (CK2α/β) (Homo sapiens, UniProt P68400)
Assay: CK2 kinase assay, CK2A1 (CK2α/β)
Format: biochemical
Details: Table A; read-out: CK2A1 (CK2α/β) (IC50)

CK2A1 (CK2α/β), sequence (P68400 whole entry, species assumed): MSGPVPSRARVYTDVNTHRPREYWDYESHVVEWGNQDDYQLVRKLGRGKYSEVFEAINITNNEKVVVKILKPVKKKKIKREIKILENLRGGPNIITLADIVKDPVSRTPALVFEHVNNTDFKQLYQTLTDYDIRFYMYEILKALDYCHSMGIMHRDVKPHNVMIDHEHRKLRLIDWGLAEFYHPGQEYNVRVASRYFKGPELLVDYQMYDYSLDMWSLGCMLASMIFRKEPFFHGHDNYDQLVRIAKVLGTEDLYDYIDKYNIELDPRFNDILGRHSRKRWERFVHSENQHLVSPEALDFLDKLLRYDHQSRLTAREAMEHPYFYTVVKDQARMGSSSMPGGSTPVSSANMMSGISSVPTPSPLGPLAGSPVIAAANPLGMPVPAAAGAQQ
CK2A1 (CK2α/β), sequence (P67870 whole entry partner, species assumed): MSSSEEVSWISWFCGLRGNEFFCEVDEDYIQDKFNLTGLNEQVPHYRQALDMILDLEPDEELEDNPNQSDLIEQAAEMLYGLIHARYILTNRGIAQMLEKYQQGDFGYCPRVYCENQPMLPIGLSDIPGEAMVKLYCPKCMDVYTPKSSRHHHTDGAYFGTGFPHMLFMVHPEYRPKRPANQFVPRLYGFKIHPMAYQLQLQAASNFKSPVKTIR

Compound	IC50 [nM]
CC[C@H]1CN(c2cc(C#N)cc(Nc3nc(NC4CC4)c4ncc(C#N)n4n3)c2Cl)C[C@H]1NC(=O)OC (racemic) [Example 292, (+/−) methyl ((3S,4S)-1-(2-chloro-5-cyano-3-((7-cyano-4-(cyclopropylamino)imidazo[2,1-f][1,2,4]triazin-2-yl)amino)phenyl)-4-ethyl-3-pyrrolidinyl)carbamate]	2
N#Cc1cc(Nc2nc(NC3CC3)c3ncc(C#N)n3n2)c(Cl)c(N2CC[C@@H](NC(=O)OC3CN(C4COC4)C3)[C@H](O)C2)c1 (racemic) [Example 180, (+/−)-1-(oxetan-3-yl)azetidin-3-yl((3R,4R)-1-(2-chloro-5-cyano-3-((7-cyano-4-(cyclopropylamino)imidazo[2,1-f][1,2,4]triazin-2-yl)amino)phenyl)-3-hydroxypiperidin-4-yl)carbamate]	0.51
CC(C)(C(N)=O)N1CC2(CCN(c3cc(C#N)cc(Nc4nc(NC5CC5)c5ncc(C#N)n5n4)c3Cl)CC2)C1 [Example 803, 2-(7-(2-chloro-5-cyano-3-((7-cyano-4-(cyclopropylamino)imidazo[2,1-f][1,2,4]triazin-2-yl)amino)phenyl)-2,7-diazaspiro[3.5]nonan-2-yl)-2-methylpropanamide]	2.8
CCNc1nc(Nc2ccc3c(c2)c(C#N)cn3C2CCN(C3CN(C(=O)OC)C3)CC2)nn2c(C#N)cnc12 [Example 836, methyl 3-(4-(3-cyano-5-((7-cyano-4-(ethylamino)imidazo[2,1-f][1,2,4]triazin-2-yl)amino)-1H-indol-1-yl)piperidin-1-yl)azetidine-1-carboxylate]	1.44
CN1CCC(O)(c2cc(C#N)cc(Nc3nc(NC4CC4)c4ncc(C#N)n4n3)c2Cl)CC1 [Example 649, 2-((2-chloro-5-cyano-3-(4-hydroxy-1-methylpiperidin-4-yl)phenyl)amino)-4-(cyclopropylamino)imidazo[2,1-f][1,2,4]triazine-7-carbonitrile]	1.01
N#Cc1cc(Nc2nc(NC3CC3)c3ncc(C#N)n3n2)c(F)c(N2CCN(CC(O)CF)CC2)c1 (stereo not drawn) [Example 549, 2-((5-cyano-2-fluoro-3-(4-(3-fluoro-2-hydroxypropyl)piperazin-1-yl)phenyl)amino)-4-(cyclopropylamino)imidazo[2,1-f][1,2,4]triazine-7-carbonitrile]	1.25
CC(=O)N[C@@H]1CCN(c2cc(C#N)cc(Nc3nc(NC4CC4)c4ncc(C#N)n4n3)c2Cl)C[C@H]1O (racemic) [Example 172, (+/−)-N-((3R,4R)-1-(2-chloro-5-cyano-3-((7-cyano-4-(cyclopropylamino)imidazo[2,1-f][1,2,4]triazin-2-yl)amino)phenyl)-3-hydroxypiperidin-4-yl)acetamide]	0.51
CCNc1nc(Nc2cc(C#N)cc(N3CCN(C4CN(CC(O)CF)C4)CC3)c2Cl)nn2c(C#N)cnc12 (stereo not drawn) [Example 586, 2-[(2-chloro-5-cyano-3-{4-[1-(3-fluoro-2-hydroxypropyl)azetidin-3-yl]piperazin-1-yl}phenyl)amino]-4-(ethylamino)imidazo[2,1-f][1,2,4]triazine-7-carbonitrile]	1.58
N#Cc1cc(Nc2nc(NC3CC3)c3ncc(C#N)n3n2)c(Cl)c(C(O)CO)c1 (racemic) [Example 681, (+/−)-2-((2-chloro-5-cyano-3-(1,2-dihydroxyethyl)phenyl)amino)-4-(cyclopropylamino)imidazo[2,1-f][1,2,4]triazine-7-carbonitrile]	0.64
CC(=O)NCC(=O)N1CC(N2CCN(c3cc(C#N)cc(Nc4nc(NC5CC5)c5ncc(C#N)n5n4)c3Cl)CC2)C1 [Example 492, N-(2-{3-[4-(2-chloro-5-cyano-3-{[7-cyano-4-(cyclopropylamino)imidazo[2,1-f][1,2,4]triazin-2-yl]amino}phenyl)piperazin-1-yl]azetidin-1-yl}-2-oxoethyl)acetamide]	0.64
CNC(C)CC(C)c1cc(Cl)c(Nc2nc(NC3CC3)c3ncc(C#N)n3n2)cc1C#N (stereo not drawn) [Example 733, 2-({2-chloro-5-cyano-4-[4-(methylamino)pentan-2-yl]phenyl}amino)-4-(cyclopropylamino)imidazo [2,1-f][1,2,4]triazine-7-carbonitrile]	2.24
COC(=O)N[C@H]1CCN(c2cc(C#N)cc(Nc3nc(NC4CC4)c4ncc(C#N)n4n3)c2Cl)C[C@H]1NC(C)C [Example 756, methyl N-[(3R,4S)-1-(2-chloro-5-cyano-3-{[7-cyano-4-(cyclopropylamino)imidazo [2,1-f][1,2,4]triazin-2-yl]amino}phenyl)-3-[(propan-2-yl)amino]piperidin-4-yl]carbamate]	4.43
N#Cc1cc(Nc2nc(NC3CC3)c3ncc(C#N)n3n2)c(Cl)c(N2CCN(CC(N)=O)CC2=O)c1 [Example 623, 2-(4-(2-chloro-5-cyano-3-((7-cyano-4-(cyclopropylamino)imidazo[2,1-f][1,2,4]triazin-2-yl)amino)phenyl)-3-oxopiperazin-1-yl)acetamide]	3.05
CC(C)(C)[C@@H](N)C(=O)N1CC(N2CCN(c3cc(C#N)cc(Nc4nc(NC5CC5)c5ncc(C#N)n5n4)c3Cl)CC2)C1 [Example 502, 2-{[3-(4-{1-[(2R)-2-amino-3,3-dimethylbutanoyl]azetidin-3-yl}piperazin-1-yl)-2-chloro-5-cyanophenyl]amino}-4-(cyclopropylamino)imidazo[2,1-f][1,2,4]triazine-7-carbonitrile]	3.27
CC(CC(C)c1cc(Cl)c(Nc2nc(NC3CC3)c3ncc(C#N)n3n2)cc1C#N)NCC(F)(F)F (stereo not drawn) [Example 732, 2-((2-chloro-5-cyano-4-(4-((2,2,2-trifluoroethyl)amino)pentan-2-yl)phenyl)amino)-4-(cyclopropylamino)imidazo[2,1-f][1,2,4]triazine-7-carbonitrile]	25.4
CO[C@@H]1CN(c2cc(C#N)cc(Nc3nc(NC4CC4)c4ncc(C#N)n4n3)c2Cl)C[C@@H]1NC(=O)NC1COC1 [Example 290, 1-((3S,4R)-1-(2-chloro-5-cyano-3-((7-cyano-4-(cyclopropylamino)imidazo[2,1-f][1,2,4]triazin-2-yl)amino)phenyl)-4-methoxy-3-pyrrolidinyl)-3-(3-oxetanyl)urea]	0.47

Results, then the molecule that gave them:

IC50 [nM]	Compound
0.64	CC(O)CNC1CCN(c2cc(C#N)cc(Nc3nc(NC4CC4)c4ncc(C#N)n4n3)c2Cl)CC1 (racemic) [Example 138, (+/−).2-(2-chloro-5-cyano-3-(4-(2-hydroxypropylamino)piperidin-1-yl)phenylamino)-4-(cyclopropylamino)imidazo [1,2-f][1,2,4]triazine-7-carbonitrile]
2.49	N#Cc1cc(Nc2nc(NC3CC3)c3ncc(C#N)n3n2)c(Cl)c(N2CCC[C@@H](N)C2)c1 [Example 40, (R)-2-(3-(3-aminopiperidin-1-yl)-2-chloro-5-cyanophenylamino)-4-(cyclopropylamino)imidazo [1,2-f][1,2,4]triazine-7-carbonitrile]
0.78	N#Cc1cc(Nc2nc(NC3CC3)c3ncc(C#N)n3n2)c(Cl)c(C2CCN(CC(F)F)CC2)c1 [Example 212, 2-(2-chloro-5-cyano-3-(1-(2,2-difluoroethyl)piperidin-4-yl)phenylamino)-4-(cyclopropylamino)imidazo[1,2-f][1,2,4]triazine-7-carbonitrile]
0.44	N#Cc1cnc2c(NC3CC3)nc(Nc3cc(C(N)=O)cc(N4CC(NC5COC5)C4)c3Cl)nn12 [Example 166, 4-chloro-3-((7-cyano-4-(cyclopropylamino)imidazo [2,1-f][1,2,4]triazin-2-yl)amino)-5-(3-(3-oxetanylamino)-1-azetidinyl)benzamide]
0.77	CC(=O)N1CCC(C(F)c2cc(C#N)cc(Nc3nc(NC4CC4)c4ncc(C#N)n4n3)c2Cl)CC1 (stereo not drawn) [Example 663, 2-((3-((1-acetylpiperidin-4-yl)fluoromethyl)-2-chloro-5-cyanophenyl)amino)-4-(cyclopropylamino)imidazo[2,1-f][1,2,4]triazine-7-carbonitrile]
0.58	CN1CC2(CCN(c3cc(C#N)cc(Nc4nc(NC5CC5)c5ncc(C#N)n5n4)c3Cl)CC2)CC1=O (racemic) [Example 782, (+/−)-2-((2-chloro-5-cyano-3-(2-methyl-3-oxo-2,8-diazaspiro[4.5]decan-8-yl)phenyl)amino)-4-(cyclopropylamino)imidazo[2,1-f][1,2,4]triazine-7-carbonitrile]
0.71	N#Cc1cc(Nc2nc(NC3CC3)c3ncc(C#N)n3n2)c(Cl)c(C2CCN(C3COC3)CC2)c1 [Example 210, 2-((2-chloro-5-cyano-3-(1-(3-oxetanyl)-4-piperidinyl)phenyl)amino)-4-(cyclopropylamino)imidazo[2,1-f][1,2,4]triazine-7-carbonitrile]
0.35	CC(C)(O)[C@@H]1CN(c2cc(C#N)cc(Nc3nc(NC4CC4)c4ncc(C#N)n4n3)c2Cl)CCO1 [Example 37, 2-((2-chloro-5-cyano-3-((2S)-2-(1-hydroxy-1-methylethyl)-4-morpholinyl)phenyl)amino)-4-(cyclopropylamino)imidazo [2,1-f][1,2,4]triazine-7-carbonitrile]
2.12	N#Cc1cnc2c(NC3CC3)nc(Nc3cc(OC(F)F)cc(N4CCOCC4)c3Cl)nn12 [Example 406, 2-(2-chloro-5-(difluoromethoxy)-3-morpholinophenylamino)-4-(cyclopropylamino)imidazo[1,2-f][1,2,4]triazine-7-carbonitrile]
1.25	N#Cc1cc(Nc2nc(NC3CC3)c3ncc(C#N)n3n2)c(Cl)c(N2CCC3CCNC3C2)c1 (racemic) [Example 454, (+/−)-2-((2-chloro-5-cyano-3-(hexahydro-1H-pyrrolo[2,3-c]pyridin-6(2H)-yl)phenyl)amino)-4-(cyclopropylamino)imidazo[2,1-f][1,2,4]triazine-7-carbonitrile]
3.02	N#Cc1cc(Nc2nc(NC3CC3)c3ncc(C#N)n3n2)c(Cl)c(N2CCN(C3CCC3=O)CC2)c1 (stereo not drawn) [Example 62, 2-((2-chloro-5-cyano-3-(4-(2-oxocyclobutyl)piperazin-1-yl)phenyl)amino)-4-(cyclopropylamino) imidazo[2,1-f][1,2,4] triazine-7-carbonitrile]
